Key:
Test in all cases: selective drug sensitivity score (sDSS, relative to normal bone marrow) (sDSS (score)); higher = more potent and effective on the cell line relative to normal bone marrow cells
Settings in all cases: 72 h
RPMI-8402 = tested on: RPMI-8402
KASUMI-10 = tested on: KASUMI-10
MOLT-4 = tested on: MOLT-4
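Further: ALL cell lines in 384-well plates, five doses spanning 10,000-fold, each plate scaled between vehicle and 100 µmol/L benzalkonium chloride controls, sDSS an adapted area-under-curve metric.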

`CC(C)Oc1ccc(C(=O)N[C@H](CNC(=O)CN(C)C)Cc2ccc(-c3cn4cccc([C@H](C)O)c4n3)cc2)cc1Cl` (top concentration 10000 nM) was tested, and the “selective drug sensitivity score” value (RPMI-8402) was 9.28, the “selective drug sensitivity score” value (KASUMI-10) was 6.88 and the “selective drug sensitivity score” value (MOLT-4) was 18.2.

`CCn1c(-c2nonc2N)nc2cnc(Oc3cccc(NC(=O)c4ccc(OCCN5CCOCC5)cc4)c3)cc21` (top concentration 10000 nM) was tested, and the “selective drug sensitivity score” value (RPMI-8402) was 7.66, the “selective drug sensitivity score” value (KASUMI-10) was -2.74 and the “selective drug sensitivity score” value (MOLT-4) was 1.86.

In the case of `CC(C)(C#N)c1cc(Cn2cncn2)cc(C(C)(C)C#N)c1` [Anastrozole] (top concentration 10000 nM), the “selective drug sensitivity score” value (RPMI-8402) is reported as 0, the “selective drug sensitivity score” value (KASUMI-10) is reported as 0 and the “selective drug sensitivity score” value (MOLT-4) is reported as 0.

With `Cc1sc2c(c1C)C(c1ccc(Cl)cc1)=N[C@@H](CC(=O)Nc1ccc(O)cc1)c1nnc(C)n1-2` [Birabresib] (top concentration 10000 nM) the “selective drug sensitivity score” value (RPMI-8402) was 3.72, the “selective drug sensitivity score” value (KASUMI-10) was 7.02 and the “selective drug sensitivity score” value (MOLT-4) was -4.68.

`Nc1ccn([C@@H]2O[C@H](CO)[C@@H](O)[C@@H]2O)c(=O)n1` [Cytarabine] (top concentration 10000 nM) was tested, and the “selective drug sensitivity score” value (RPMI-8402) was 18.6, the “selective drug sensitivity score” value (KASUMI-10) was 1.6 and the “selective drug sensitivity score” value (MOLT-4) was 19.

For `COc1cccc2c1C(=O)c1c(O)c3c(c(O)c1C2=O)C[C@@](O)(C(C)=O)C[C@@H]3O[C@H]1C[C@H](N)[C@H](O)[C@H](C)O1` [Daunorubicin] (top concentration 1000 nM), the “selective drug sensitivity score” value (RPMI-8402) was 8.96, the “selective drug sensitivity score” value (KASUMI-10) was 9.06 and the “selective drug sensitivity score” value (MOLT-4) was 7.86.

With `Nc1ncn([C@H]2C[C@H](O)[C@@H](CO)O2)c(=O)n1` [Decitabine] (top concentration 10000 nM) the “selective drug sensitivity score” value (RPMI-8402) was 1.24, the “selective drug sensitivity score” value (KASUMI-10) was -3.06 and the “selective drug sensitivity score” value (MOLT-4) was -0.96.

For `CCN(CC)C(=S)SSC(=S)N(CC)CC` [Disulfiram(+CuCl2)] (top concentration 50000 nM), the “selective drug sensitivity score” value (RPMI-8402) was -2.12, the “selective drug sensitivity score” value (KASUMI-10) was -1.52 and the “selective drug sensitivity score” value (MOLT-4) was -2.12.

With `Nc1nc(F)nc2c1ncn2[C@@H]1O[C@H](CO)[C@@H](O)[C@@H]1O` [Fludarabine] (top concentration 10000 nM) the “selective drug sensitivity score” value (RPMI-8402) was -3.6, the “selective drug sensitivity score” value (KASUMI-10) was -0.8 and the “selective drug sensitivity score” value (MOLT-4) was -1.9.

`Nc1nc(OCc2cc(Br)cs2)c2[nH]cnc2n1` [Lomeguatrib] (top concentration 10000 nM) was tested, and the “selective drug sensitivity score” value (RPMI-8402) was 0, the “selective drug sensitivity score” value (KASUMI-10) was 0 and the “selective drug sensitivity score” value (MOLT-4) was 0.

`Cc1cc(OCc2nnc(SC3CCCC3)n2-c2cccnc2)ccc1-c1ccc(S(C)(=O)=O)cc1` [NMS-873] (top concentration 10000 nM) was tested, and the “selective drug sensitivity score” value (RPMI-8402) was 21.3, the “selective drug sensitivity score” value (KASUMI-10) was -0.14 and the “selective drug sensitivity score” value (MOLT-4) was 17.4.

In the case of `COC(=O)c1ccc2c(c1)NC(=O)/C2=C(\Nc1ccc(N(C)C(=O)CN2CCN(C)CC2)cc1)c1ccccc1` [Nintedanib] (top concentration 10000 nM), the “selective drug sensitivity score” value (RPMI-8402) is reported as 1.14, the “selective drug sensitivity score” value (KASUMI-10) is reported as 14.1 and the “selective drug sensitivity score” value (MOLT-4) is reported as -1.96.

In the case of `O=C(c1cc(Cc2n[nH]c(=O)c3ccccc23)ccc1F)N1CCN(C(=O)C2CC2)CC1` [Olaparib] (top concentration 10000 nM), the “selective drug sensitivity score” value (RPMI-8402) is reported as -0.02, the “selective drug sensitivity score” value (KASUMI-10) is reported as 2.88 and the “selective drug sensitivity score” value (MOLT-4) is reported as 4.18.

In the case of `O=C(O)C(=O)O.[NH-][C@@H]1CCCC[C@H]1[NH-].[Pt+2]` [Oxaliplatin] (top concentration 100000 nM), the “selective drug sensitivity score” value (RPMI-8402) is reported as 8.02, the “selective drug sensitivity score” value (KASUMI-10) is reported as 14.2 and the “selective drug sensitivity score” value (MOLT-4) is reported as 12.4.

For `CS(=O)(=O)N1CCN(Cc2cc3nc(-c4cccc5[nH]ncc45)nc(N4CCOCC4)c3s2)CC1` [Pictilisib] (top concentration 10000 nM), the “selective drug sensitivity score” value (RPMI-8402) was 6.26, the “selective drug sensitivity score” value (KASUMI-10) was 3.96 and the “selective drug sensitivity score” value (MOLT-4) was 9.36.

For `CCOC(=O)C1=CCCC[C@H]1S(=O)(=O)Nc1ccc(F)cc1Cl` [Resatorvid] (top concentration 10000 nM), the “selective drug sensitivity score” value (RPMI-8402) was 0, the “selective drug sensitivity score” value (KASUMI-10) was 0 and the “selective drug sensitivity score” value (MOLT-4) was 0.

With `CO[C@H]1C[C@@H]2CC[C@@H](C)[C@@](O)(O2)C(=O)C(=O)N2CCCC[C@H]2C(=O)O[C@H]([C@H](C)C[C@@H]2CC[C@@H](OP(C)(C)=O)[C@H](OC)C2)CC(=O)[C@H](C)/C=C(\C)[C@@H](O)[C@@H](OC)C(=O)[C@H](C)C[C@H](C)/C=C/C=C/C=C/1C` [Ridaforolimus] (top concentration 100 nM) the “selective drug sensitivity score” value (RPMI-8402) was -1.44, the “selective drug sensitivity score” value (KASUMI-10) was -4.84 and the “selective drug sensitivity score” value (MOLT-4) was -2.04.

`CCc1c2c(nc3ccc(O)cc13)-c1cc3c(c(=O)n1C2)COC(=O)[C@]3(O)CC` [SN-38] (top concentration 10000 nM) was tested, and the “selective drug sensitivity score” value (RPMI-8402) was 25.4, the “selective drug sensitivity score” value (KASUMI-10) was 18.9 and the “selective drug sensitivity score” value (MOLT-4) was 28.2.

In the case of `CC[C@@H](C(=O)[C@@H](C)[C@@H](O)[C@H](C)[C@@H]1O[C@@H]([C@@H](CC)C(=O)O)CC[C@@H]1C)[C@H]1O[C@]2(C=C[C@@H](O)[C@]3(CC[C@@](C)([C@H]4CC[C@](O)(CC)[C@H](C)O4)O3)O2)[C@H](C)C[C@@H]1C` [Salinomycin] (top concentration 50000 nM), the “selective drug sensitivity score” value (RPMI-8402) is reported as 10.1, the “selective drug sensitivity score” value (KASUMI-10) is reported as 1.8 and the “selective drug sensitivity score” value (MOLT-4) is reported as -5.3.

In the case of `CNC(=O)CN1CCC(Oc2cc3c(Nc4cccc(Cl)c4F)ncnc3cc2OC)CC1` [Sapitinib] (top concentration 1000 nM), the “selective drug sensitivity score” value (RPMI-8402) is reported as 0, the “selective drug sensitivity score” value (KASUMI-10) is reported as 0 and the “selective drug sensitivity score” value (MOLT-4) is reported as 0.

`O[C@H]1CC[C@H](Nc2ncc3nc(Nc4c(F)cc(F)cc4F)n([C@H]4CCOC4)c3n2)CC1` [Tanzisertib] (top concentration 10000 nM) was tested, and the “selective drug sensitivity score” value (RPMI-8402) was 0, the “selective drug sensitivity score” value (KASUMI-10) was 0 and the “selective drug sensitivity score” value (MOLT-4) was 0.

`CO[C@H]1C[C@@H]2CC[C@@H](C)[C@@](O)(O2)C(=O)C(=O)N2CCCC[C@H]2C(=O)O[C@H]([C@H](C)C[C@@H]2CC[C@@H](OC(=O)C(C)(CO)CO)[C@H](OC)C2)CC(=O)[C@H](C)/C=C(\C)[C@@H](O)[C@@H](OC)C(=O)[C@H](C)C[C@H](C)/C=C/C=C/C=C/1C` [Temsirolimus] (top concentration 100 nM) was tested, and the “selective drug sensitivity score” value (RPMI-8402) was -1.04, the “selective drug sensitivity score” value (KASUMI-10) was -5.04 and the “selective drug sensitivity score” value (MOLT-4) was -1.24.

In the case of `COc1cc([C@@H]2c3cc4c(cc3[C@@H](O[C@@H]3O[C@@H]5CO[C@@H](c6cccs6)O[C@H]5[C@H](O)[C@H]3O)[C@H]3COC(=O)[C@H]23)OCO4)cc(OC)c1O` [Teniposide] (top concentration 10000 nM), the “selective drug sensitivity score” value (RPMI-8402) is reported as 0, the “selective drug sensitivity score” value (KASUMI-10) is reported as 0 and the “selective drug sensitivity score” value (MOLT-4) is reported as 0.

In the case of `Oc1nc(-c2ccc(C(F)(F)F)cc2)nc2c1CSCC2` [XAV939] (top concentration 10000 nM), the “selective drug sensitivity score” value (RPMI-8402) is reported as -0.14, the “selective drug sensitivity score” value (KASUMI-10) is reported as -0.14 and the “selective drug sensitivity score” value (MOLT-4) is reported as -0.14.
